PMC6048268, “Resveratrol Inhibits Key Steps of Steroid Metabolism in a Human Estrogen-Receptor Positive Breast Cancer Model: Impact on Cellular Proliferation” (Frontiers in Pharmacology, 2018)
Read-outs that look alike come from different tables or passages of the source.

What was measured:
[1] = test system: steroid metabolism in MDA-MB-231 cells; test: Inhibition of steroid metabolism by RES in MDA-MB-231 cells (LC–HRMS); type: cell-based, human; conditions: MDA-MB-231, 100 μM RES, 100 nM DHEA or E1, 48 h
Protocol: (§1) Briefly, cartridges were preconditioned with 2 × 1.0 ml acetonitrile and 3 × 1.0 ml ammonium acetate buffer (10 mM, pH = 5.0), and the samples were loaded onto the columns. After washing with 1 × 1.0 ml ammonium acetate buffer (10 mM, pH = 5.0) and 2 × 1.0 ml acetonitrile/ammonium acetate buffer (10 mM, pH 5.0) 10:90 (v/v), the analytes were eluted using 2 × 650 μl acetonitrile/ammonium acetate buffer (10 mM, pH = 5.0) 95:5 (v/v) and evaporated until dry. Subsequently, samples were reconstituted in 270 μl acetonitrile/ammonium acetate buffer (10 mM, pH = 5.0) 25:75 (v/v) and stored at -80°C until further LC–HRMS analysis.
After media collection, cell monolayers were washed five times with 2.0 ml DPBS, detached using 400 μl TrypLE® solution (37°C, 5 min), mixed with 600 μl DPBS and transferred into sample vials. Aliquots of these suspensions (100 μl each) were diluted and counted using the Casy® TT Cell Counter to determine the exact number of cells per sample well. […]
LC was performed with an UltiMate 3000 RSLC-series system coupled to a maXis HD ESI-Qq-TOF mass spectrometer (Bruker Corporation, Bremen, Germany). […] In the range of m/z 150–500, full-scan mass spectra were recorded.
(§2) The modes of inhibition were subsequently determined from Lineweaver–Burk plots, and the corresponding Ki values were calculated from Dixon plots using GraphPad Prism 6.0.

[2] = test system: steroid metabolism in MCF-7 cells; test: Inhibition of steroid metabolism by RES in MCF-7 cells (LC–HRMS); conditions: for inhibition at 10 µM: Homo sapiens, MCF7, 48 h; for Ki: MCF-7, Dixon plot
Protocol: as §1
After media collection, cell monolayers were washed five times with 2.0 ml DPBS, detached using 400 μl TrypLE® solution (37°C, 5 min), mixed with 600 μl DPBS and transferred into sample vials. Aliquots of these suspensions (100 μl each) were diluted and counted using the Casy® TT Cell Counter to determine the exact number of cells per sample well. The remaining cell suspensions (900 μl each) were gently centrifuged (1000 rpm, 8 min), and the supernatants were discarded. The cell pellets were subsequently resuspended in 100 μl aqueous ammonium acetate buffer (10 mM, pH = 5.0) and lysed by five freeze-thaw-cycles in liquid nitrogen (3 min each), followed by thawing at ambient temperature. Ammonium acetate buffer (1000 μl) was added, and the suspensions were centrifuged (14000 rpm, 5 min). Subsequently, the supernatants were concentrated using the same SPE protocol as described above. All processed samples were then stored at -80°C until further LC–HRMS analysis. For each condition, three biologically independent experiments were performed; the reported values represent the overall means ± SD of all values.
LC was performed with an UltiMate 3000 RSLC-series system coupled to a maXis HD ESI-Qq-TOF mass spectrometer (Bruker Corporation, Bremen, Germany). A Phenomenex Luna® 3 μm C18(2) 100 Å LC column (250 mm × 4.6 mm I.D.; Phenomenex, Inc., Torrance, CA, United States), preceded by a Hypersil® BDS-C18 guard column (5 μm, 10 mm × 4.6 mm I.D.; Thermo Fisher Scientific, Inc.) was used for the separation of the analytes at a flow rate of 1.0 ml/min and a temperature of 43°C. […] The ESI ion source settings were as follows: capillary voltage: -4.5 kV; dry gas flow rate: 8.0 l/min N2; nebulizer: 1.0 bar N2; and dry temperature: 200°C. The ion transfer parameters were set to 400 Vpp funnel RF and 300 Vpp multipole RF, the quadrupole ion energy was 8.0 eV, and the collision cell parameters were as follows: collision RF, 1100 Vpp; collision energy, 10.0 eV; transfer time, 38 μs; and pre-pulse storage, 18 μs. In the range of m/z 150–500, full-scan mass spectra were recorded.
as §2

MDA-MB-231 cells = test: Cell proliferation, Casy cell counting, MDA-MB-231; type: cell-based, human
Protocol: (§3) MDA-MB-231 and MCF-7 breast cancer cells were purchased from the American Type Culture Collection (ATCC; Manassas, VA, United States) and routinely cultivated at 37°C (95% humidity and 5% CO2) in phenolred-free Dulbecco’s modified Eagle medium F-12 (DMEM/F-12), fortified with 1% PenStrep®-solution and 10% fetal bovine serum (Invitrogen; Thermo Fisher Scientific, Inc., Waltham, MA, United States). All experiments were performed during the exponential growth phase of both cell lines. For the experiments, cells were seeded in 6-well-plates at a density of 1.0 × 10^6 cells per well and allowed to attach for 24 h.
(§4) Prior to cell counting with a Casy® TT Cell Counter (OLS OMNI Life Science, Bremen, Germany), the supernatant medium was removed and cells were detached using 400 μl TrypLe® solution (Invitrogen). All experiments were performed in triplicate, and the data were reported as the means ± standard deviation of all values.

MCF-7 cells = test: Cell proliferation, Casy cell counting, MCF-7; type: cell-based, human
Protocol: as §3, §4

[3] = biological target: estrogen sulfation, S9 fractions from human jejunum; design: method as in Furimsky et al. (2008); conditions: ref Furimsky et al. (2008), read-out: Ki, inhibition of estrogen sulfation; cited from earlier work
serum E2 concentrations = test system: serum E2 concentrations; design: method as in Chow et al., 2014; conditions: post-menopausal women, 1 g RES once a day for 12 weeks, non-significant; ref Chow et al., 2014; cited from earlier work
[4] = biological target: estrogen sulfation, S9 fractions from human liver; design: method as in Furimsky et al. (2008); conditions: ref Furimsky et al. (2008), read-out: Ki, inhibition of estrogen sulfation; cited from earlier work
E2 levels = test system: E2 levels; design: method as in El-Sayed and Bayan, 2015; conditions: mice, 4 mg/kg i.p. for 7 days; ref El-Sayed and Bayan, 2015; cited from earlier work
[5] = MCF-7, 100 μM RES, 100 nM DHEA, 48 h
[6] = MCF-7, 100 μM RES, 100 nM E1, 48 h

Oc1ccc(/C=C/c2cc(O)cc(O)c2)cc1 [RES, 3,5,4′-trihydroxy-trans-stilbene]
effect on formation of DHEA-S, E1-S, E2-S and E2-G [1]: did not affect | effect on formation of unconjugated AD, T and E2 [1]: no significant influence | inhibition at 10 µM ([2]; read-out: inhibition of E1 sulfation): 91.6 ± 1.1% | inhibition at 10 µM ([2]; read-out: inhibition of E2 sulfation): 90 ± 1% | increase in AD concentrations [2, 5]: 141.0% | increase in T levels [2, 5]: 305.9% | reduction of mean formation of DHEA-S [2, 5]: 87.7% | increase in unconjugated E2 concentrations [2, 6]: 101.6% | reduction of mean formation of E1-S [2, 6]: 99.1% | reduction of mean formation of E2-G [2, 6]: 89.7% | reduction of mean formation of E2-S [2, 6]: 98.8% | mode of inhibition of conjugate formation ([2]; MCF-7, Lineweaver–Burk and Dixon plots, all conjugates): non-competitive | Ki ([2]; read-out: Ki, inhibition of DHEA-S formation, DHEA precursor): 13.2 ± 0.2 µM | Ki ([2]; read-out: Ki, inhibition of E1-S formation, E1 precursor): 0.94 ± 0.03 µM | Ki ([2]; read-out: Ki, inhibition of E2-G formation, E1 precursor): 7.92 ± 0.24 µM | Ki ([2]; read-out: Ki, inhibition of E2-S formation, E1 precursor): 0.73 ± 0.07 µM | number of viable cells (MDA-MB-231 cells; 2.5 μM RES, 48 h, seeded 1.0 × 10^6): 2.03 ± 0.16 × 10^6 cells | reduction of number of viable cells (MDA-MB-231 cells; 100 μM RES, 48 h): 68.6 ± 4.7% | IC50 (MDA-MB-231 cells; Homo sapiens, MDA-MB-231, 48 h, steroid-deprived, read-out: IC50 (inhibition of cell growth)): 15.1 ± 4.9 µM | effect of simultaneous incubation with RES and E1 on cell proliferation (MDA-MB-231 cells; RES 0–100 μM with E1, 48 h): no observable effect | increase in cell counts on co-incubation (MCF-7 cells; 5 μM RES + 100 nM E1, 48 h, vs control without E1): twofold increase in cell counts | cell number (MCF-7 cells; 5 μM RES, 48 h): 2.92 ± 0.16 × 10^6 cells | effect on cellular proliferation (MCF-7 cells; 10 μM RES, 48 h): no effect | cell number (MCF-7 cells; 100 μM RES, 48 h): 1.08 ± 0.11 × 10^6 cells | Emax at 5 µM (MCF-7 cells; Homo sapiens, MCF7, 48 h, read-out: stimulation of cellular growth (maximal effect)): 21.2 ± 3.3% | IC50 (MCF-7 cells; Homo sapiens, MCF7, MCF-7, 48 h, steroid-deprived, read-out: IC50 (inhibition of cell growth)): 37.4 ± 14.5 µM | Ki [3]: 0.6 µM | increase in serum E2 concentrations (serum E2 concentrations): 22.4% | Ki [4]: 1.1 µM | increase in E2 levels (E2 levels): approximately twofold increase
